This test has as its target T1, CCR-3 receptor (Homo sapiens, UniProt P51677).
T1 construct: expressed in transfected cells; host or cells: L1.2 (murine pre-B lymphoma line)
T1 sequence (P51677 1-355): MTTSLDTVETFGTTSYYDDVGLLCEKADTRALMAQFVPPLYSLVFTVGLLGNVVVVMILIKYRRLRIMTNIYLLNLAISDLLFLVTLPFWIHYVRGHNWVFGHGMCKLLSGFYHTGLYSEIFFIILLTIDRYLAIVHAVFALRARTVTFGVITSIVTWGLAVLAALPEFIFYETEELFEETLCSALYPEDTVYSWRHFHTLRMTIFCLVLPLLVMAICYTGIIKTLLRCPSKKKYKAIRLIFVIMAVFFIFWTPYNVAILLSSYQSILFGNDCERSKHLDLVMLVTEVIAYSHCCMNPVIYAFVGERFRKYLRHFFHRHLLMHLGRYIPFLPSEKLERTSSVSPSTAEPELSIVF
The experiment in a line: CCR-3 Receptor Binding Assay in vitro (inhibition of 125I eotaxin binding to CCR-3 L1.2 transfectant cells). Particulars: concentration reducing 125I-eotaxin binding to CCR-3 L1.2 transfected cells by 50%; read-out: CCR-3 IC50. The procedure:
The CCR-3 antagonistic activity of the compounds of the invention was determined by their ability to inhibit the binding of ^125I eotaxin to CCR-3 L1.2 transfectant cells (see Ponath, P. D. et al., J. Exp. Med., Vol. 183, 2437-2448, (1996)).
The assay was performed in Costar 96-well polypropylene round bottom plates. Test compounds were dissolved in DMSO and then diluted with binding buffer (50 mM HEPES, 1 mM CaCl2, 5 mM MgCl2, 0.5% bovine serum albumin (BSA), 0.02% sodium azide, pH 7.24) such that the final DMSO concentration was 2%. Each well was filled with 25 μl of the test solution or only buffer with DMSO (control samples) followed by the addition of 25 μl of ^125I-eotaxin (100 pmol) (NEX314, New England Nuclear, Boston, Mass.) and 1.5×10^5 of the CCR-3 L1.2 transfected cells in 25 μl binding buffer. The final reaction volume was 75 μl.
After incubating the reaction mixture for 1 h at room temperature, the reaction was terminated by filtering the reaction mixture through polyethylenimine treated Packard Unifilter GF/C filter plate (Packard, Chicago, Ill.). The filters were washed four times with ice cold wash buffer containing 10 mM HEPES and 0.5M sodium chloride (pH 7.2) and dried at 65° C. for approximately 10 min. 25 μl/well of Microscint-20™ scintillation fluid (Packard) was added and the radioactivity retained on the filters was determined by using the Packard TopCount™.
The IC50 value (concentration of test compound required to reduce ^125I-eotaxin binding to the CCR-3 L 1.2 transfected cells by 50%) for compounds in Table I of the invention was between 0.02 and 200 μM, preferably between 0.02 and 10 μM.

pIC50: −log10 of the molar value.

Consider `COc1cc(-c2cnc(OCC(=O)NCC3CCCN(Cc4ccc(Cl)c(Cl)c4)C3)nc2)cc(OC)c1OC` (stereo not shown) [Compound 58, N-[1-(3,4-dichloro-benzyl)-piperidin-3-ylmethyl]-2-[5-(3,4,5-trimethoxy-phenyl)-pyrimidin-2-yloxy]-acetamide], for which the negative logarithm of the IC50 (pIC50) is 4.68.
Turning to `COc1cccc(-c2cnc(OCC(=O)NCC3CCCN(Cc4cccc(Cl)c4Cl)C3)nc2)c1` (stereo not shown) [Compound 52, N-[1-(2,3-dichloro-benzyl)-piperidin-3-ylmethyl]-2-[5-(3-methoxy-phenyl)-pyrimidin-2-yloxy]-acetamide], the pIC50 was 5.24.
Turning to `COc1ccc(-c2cnc(SCC(=O)NCC3CCCN(Cc4ccc5ccccc5c4)C3)nc2)cc1OC` (stereo not shown) [Compound 15, 2-[5-(3,4-dimethoxy-phenyl)-pyrimidin-2-ylsulfanyl]-N-(1-naphthalen-2-yl-methyl-piperidin-3-ylmethyl)-acetamide], the pIC50 was 6.58.
For the molecule `COc1ccc(-c2cnc(SCC(=O)NCC3CCCN(Cc4ccc5c(c4)CCC5)C3)nc2)cc1OC` (stereo not shown) [Compound 16, 2-[5-(3,4-dimethoxy-phenyl)-pyrimidin-2-ylsulfanyl]-N-(1-indan-5-ylmethyl-piperidin-3-ylmethyl)-acetamide], the negative logarithm of the IC50 (pIC50) was 6.56.
For the molecule `COc1ccc(-c2cnc(CCC(=O)NCC3CCCN(Cc4ccc(Br)c(Br)c4)C3)nc2)cc1OC` (stereo not shown) [Compound 8, N-[1-(3,4-dibromo-benzyl)-piperidin-3-ylmethyl]-3-[5-(3,4-dimethoxy-phenyl)-pyrimidin-2-yl]-propionamide], the pIC50 was 6.97.
In the case of `COc1ccc(-c2cnc(SCC(=O)NCC3CCCN(Cc4ccc5cc[nH]c5c4)C3)nc2)cc1OC` (stereo not shown) [Compound 1], the pIC50 was 7.60.
Regarding `COc1cccc(-c2cnc(OCC(=O)NCC3CCCN(Cc4ccc5c(c4)OCO5)C3)nc2)c1` (stereo not shown) [Compound 62, N-(1-benzo[1,3]-dioxol-5-ylmethyl-piperidin-3-ylmethyl)-2-[5-(3-methoxy-phenyl)-pyrimidin-2-yloxy]-acetamide], the negative logarithm of the IC50 (pIC50) is 3.89.

Values taken from patent publication US6984643B2, “2,5-substituted pyrimidine derivatives-CCR-3 receptor antagonists” (Roche Palo Alto LLC, priority 2002, dated 2006).
